Experimental data from US7709497B2, “Pyrazolo[3,4-b]pyridine compound, and its use as a PDE4 inhibitor” (Glaxo Group Limited, priority 2004, dated 2010).

Key:
[1] = test system: TNF-α (TNF-alpha) production in Human Whole Blood; assay: Inhibition of TNF-α production in Human Whole Blood; type: cell-based; details: LPS-stimulated, n=6, read-out: Inhibition of TNF-α production in Human Whole Blood pIC50 (converted)
Description: This is an optional supplementary test, e.g. for potentially orally-administrable PDE4 inhibitors. Also, as the assay measures the effect of PDE4 inhibitors after loss by protein binding, it might also be relevant to externally-topically-administrable PDE4 inhibitors as protein-binding-loss of compound is possible during transport through the skin.
(§1) Test compounds are prepared as a ca. 10 mM stock solution in DMSO and a dilution series prepared in DMSO with 8 successive 3-fold dilutions, either directly from the 10 mM stock solution or from a more dilute solution in DMSO. The compound is added to assay plates using a Biomek Fx liquid handling robot.
Heparinised blood drawn from normal volunteers is dispensed (ca. 100 μl=ca. 100 ul) into microtitre plate wells containing ca. 0.5 or ca. 1.0 μl (ul, microliters) of an appropriately diluted test compound solution. […] Plasma TNFα content is determined by electrochemiluminescence assay using the IGEN technology (see below) or by enzyme linked immunosorbant assay (ELISA) (see below).
(§2) Ca. […] 50 μl (ul) of streptavidin/biotinylated anti-TNF-α antibody mix, ca. 25 μl ruthenium tagged anti-TNF-α monoclonal and ca. 100 μl PBS containing 0.1% bovine serum albumin are added to each well and the plates are sealed and shaken for ca. 2 hours before being read on an IGEN instrument. […]

[2] = Aqueous solubility preliminary screen; type: physicochemical; details: pH 7.4 phosphate buffered saline with about 5% DMSO, aqueous with cosolvent or surfactant or cyclodextrin, free base, pH 7.4 PBS with about 5% DMSO, about room temperature
Description: Aqueous solubility: A preliminary screen aims to estimate roughly the aqueous solubility of compounds by (as an approximate summary): (i) creating a ca. 10 mM solution of the compound in DMSO, (ii) diluting a portion of this DMSO solution by mixing about 19 parts by volume of pH 7.4 aqueous phosphate buffered saline (PBS) buffer with 1 part by volume of the ca. 10 mM DMSO solution, (iii) “filtering” the mixture with the aid of centrifugation, and then (iv) measuring the concentration of the dissolved compound in the “filtrate”.

[3] = test system: TNF-α (TNF-alpha) production in Human PBMC (Peripheral Blood Mononuclear Cell); assay: Inhibition of TNF-α production in Human PBMC assay; type: cell-based; details: LPS-stimulated, n=9, read-out: Inhibition of TNF-α production in PBMCs pIC50 (converted)
Description: as §1
PBMC cells (peripheral blood mononuclear cells) are prepared from heparinised human blood from normal volunteers by centrifugation on histopaque at ca. 1000 g for ca. 30 minutes. The cells are collected from the interface, washed by centrifugation (ca. 1300 g, ca. 10 minutes) and resuspended in assay buffer (RPMI 1640 containing 10% foetal calf serum, 1% L-glutamine and 1% penicillin/streptomycin) at 1×10^6 cells/ml. Ca. 50 μl (ca. 50 ul) cells are added to microtitre wells containing ca. 0.5 or ca/1.0 μl (ul) of an appropriately diluted compound solution. Ca. […] The supernatant is removed and the concentrations of TNF are determined by electrochemiluminescence assay using the IGEN technology or by ELISA (see below).
as §2

`CCn1ncc2c(NC3CCN(C(N)=O)CC3)c(C(=O)NCc3ccc(C)c(C)c3)cnc21` [compound of formula (I), 4-{[1-(aminocarbonyl)-4-piperidinyl]amino}-N-[(3,4-dimethylphenyl)methyl]-1-ethyl-1H-pyrazolo[3,4-b]pyridine-5-carboxamide] gave an IC50 [1] of 7.41 nM, a solubility kinetic [2] of roughly 60 µg/mL and an IC50 [3] of 1.82 nM.
